Values quoted from earlier work in US12661351B2, “Stable liquid compositions of posaconazole” (INVENGENE PRIVATE LIMITED, priority 2020, dated 2026).
Where two headings read alike, the source gives them in different places.

## CC[C@@H]([C@H](C)O)n1ncn(-c2ccc(N3CCN(c4ccc(OC[C@@H]5CO[C@@](Cn6cncn6)(c6ccc(F)cc6F)C5)cc4)CC3)cc2)c1=O [Posaconazole]
Aqueous solutions at pH>4
  Solubility: less than 1 mcg/ml
Strong acidic (aqueous) solutions of pH 1 or lower
  Solubility: about 790 mcg/ml
